{"source": "patent US10913721B2", "about": "“Crystalline form of aripiprazole” (Noratech Pharmaceuticals, Inc., priority 2016, dated 2021)", "key": {"[1]": {"conditions": "as stated in WO 03/026659; cited from earlier work"}, "[2]": {"experiment": "Comparison test for the dissolution rate of crystalline forms of aripiprazole", "type": "physicochemical", "conditions": "0.25% sodium dodecyl sulfate solution (900 mL), slurry method, 50 rpm, 37° C.±0.5° C.; 15-360 min; compared with hydrate A and the conventional hydrate (FIG. 7)", "description": "Sample preparation: Powders of crystalline form N, hydrate A and the conventional hydrate of aripiprazole are respectively sieved through a 100-mesh sieve, and the appropriate amount of sieved material (equivalent to 50 mg of aripiprazole) is taken and measured to determine the dissolution rate of each sample.\nDissolution conditions: 0.25% sodium dodecyl sulfate solution (900 mL): slurry method: 50 rpm; 37° C.±0.5° C.\nSample detection: Samples of 3 ml are respectively taken at 15, 30, 60, 90, 120, 240, and 360 min, and immediately littered through a 0.45 μm microporous membrane, 2 mL of the initial filtrate is discarded, and the drug concentration in the subsequent filtrate is measured."}}, "note": "Entries after “also recorded” stand apart in the source; their conditions may differ."}
{"smiles": "O=C1CCc2ccc(OCCCCN3CCN(c4cccc(Cl)c4Cl)CC3)cc2N1", "note": "[type-I crystals]", "values": [{"measurement": "hygroscopicity", "setting": "[1]", "value": "significant hygroscopicity"}]}
{"smiles": "O=C1CCc2ccc(OCCCCN3CCN(c4cccc(Cl)c4Cl)CC3)cc2N1", "note": "[Crystalline form N, 7-{4-[4-(2,3-dichlorophenyl)-1-piperazinyl]-butoxy}-3,4-dihydroquinolone]", "values": [{"measurement": "dissolution rate (release rate)", "setting": "[2]", "value": "slower release rate; also recorded: slower dissolution rate"}]}
